Source: PMC9926489, “Chemical Optimization of Selective Pseudomonas aeruginosa LasB Elastase Inhibitors and Their Impact on LasB-Mediated Activation of IL-1β in Cellular and Animal Infection Models” (ACS Infectious Diseases, 2023)

Experiments:
P. aeruginosa PAO1 = test: Mouse P. aeruginosa lung infection model, bacterial numbers (CFUs) in lung homogenates; format: in vivo; conditions: C57Bl/6 mice, 24 h
Experimental: To investigate if compounds 12 and 16 were able to engage the LasB target in vivo, in the context of a P. aeruginosa lung infection, and to determine the consequences of that inhibition, immunocompetent C57Bl/6 mice were infected intranasally with P. aeruginosa PAO1 and treated with two doses of inhibitors, 10 and 30 mg/kg, administered IV at 1 and 4 h post-infection (Figure 5A). A control group of PAO1-infected animals treated with vehicle and a group of animals infected with the isogenic ΔlasB strain were included in the study. Mice were euthanized 24 h post-infection and their lung homogenates assayed for activated mature IL-1β (using the IL-1 reporter assay) and bacterial numbers (by CFU enumeration).
Infection experiments were approved by the Institutional Animal Care and Use Committee of Emory University. To prepare the bacterial inoculum, P. aeruginosa PAO1 (or its ΔlasB derivative) was grown in Luria broth with shaking at physiologic (37 °C) temperature for 18 h to maximally express LasB (at late log phase). Bacteria were then harvested, washed, and diluted in sterile phosphate-buffered saline (PBS) for delivery of 10^9 colony-forming units (CFUs) in 40 μL. For infection, female C57Bl/6 mice (five/group) were sedated using isofluorane and the bacterial suspension was slowly administered via micropipette between the nostrils and the animals were allowed to aspirate the inoculum via the normal breathing process. Compounds 12 and 16 were administered in PBS via injection (100 μL volume) to achieve doses of 10 and 30 mg/kg. The mice were euthanized 24 h post-infection and the lungs were excised. Active IL-1β was quantified by adding 100 μL of cell-free homogenate to IL-1β responsive HEK IL-1R-lux reporter cells. Activity was assayed by luminescence measured with D-luciferin substrate (Steady-Luc, Biotium) on a multimode reader (PerkinElmer) and expressed as relative luminescence units (RU). CFU was enumerated by dilution plating on Luria agar. Statistics were calculated by ANOVA with a Dunnett post-test.

MMP-2 = target: T1, MMP-2 (Homo sapiens, UniProt P08253); test: MMP-2 selectivity assay; format: biochemical; conditions: human MMP-2
T1 sequence (P08253 110-660): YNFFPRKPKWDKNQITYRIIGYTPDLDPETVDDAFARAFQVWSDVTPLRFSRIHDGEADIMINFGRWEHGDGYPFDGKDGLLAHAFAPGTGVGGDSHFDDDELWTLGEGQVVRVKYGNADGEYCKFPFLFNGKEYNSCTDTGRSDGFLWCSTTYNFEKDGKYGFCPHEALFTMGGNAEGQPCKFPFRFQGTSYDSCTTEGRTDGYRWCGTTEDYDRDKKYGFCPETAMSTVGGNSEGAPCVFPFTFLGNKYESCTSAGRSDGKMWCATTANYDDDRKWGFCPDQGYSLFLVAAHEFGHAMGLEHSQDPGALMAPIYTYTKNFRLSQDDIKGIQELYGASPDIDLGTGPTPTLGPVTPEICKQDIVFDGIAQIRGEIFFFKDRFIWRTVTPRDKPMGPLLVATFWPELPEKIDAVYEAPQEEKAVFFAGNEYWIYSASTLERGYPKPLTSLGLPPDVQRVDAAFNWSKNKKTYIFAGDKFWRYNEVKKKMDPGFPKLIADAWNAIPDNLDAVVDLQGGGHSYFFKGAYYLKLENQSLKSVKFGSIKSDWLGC
Experimental: (§1) Selectivity of compound inhibition was evaluated against other proteases at concentrations between 0.4 and 200 μM. Activity against rabbit angiotensin-converting enzyme (ACE, Sigma) was assessed using 10 μM fluorogenic substrate Abz-Phe-Arg-Lys(Dnp)-P (Enzo Life Sciences) in 100 mM Tris-HCl pH 7, 50 mM NaCl, 10 μM Zn SO4. Activity against human matrix metalloproteases (MMP)-2 and MMP-9 was assessed in 50 mM HEPES pH 7.5, 10 mM CaCl2, 0.01% Triton X-100 using 4 μM fluorogenic substrate Mca-Pro-Leu-Gly-Leu-Dpa-Ala-Arg-NH2 (Enzo Life Sciences). Activity against MMP-1 and MMP-13 was assessed in 25 mM HEPES pH 7.5, 100 mM NaCl, 100 mM CaCl2, 0.0005% Brij using 7.5 μM fluorogenic substrate Mca-Lys-Pro-Leu-Gly-Leu-Dpa-Ala-Arg-NH2 (Sigma) for MMP-1 and 1.25 μM fluorogenic substrate Mca-Pro-Cha-Gly-Nva-His-Ala-Dpa-NH2 (Millipore) for MMP-13. Activity against human neutrophil elastase (HNE, Enzo Life Sciences) was assessed in 100 mM HEPES pH 7.5, 500 mM NaCl, 0.01% of Triton X-100 using 100 μM fluorogenic substrate MeOSuc-AAPV-AMC (Enzo Life Sciences).

MMP-1 = target: T2, MMP-1 (Homo sapiens, UniProt P03956); test: MMP-1 selectivity assay; format: biochemical; conditions: human MMP-1
T2 sequence (P03956 100-469): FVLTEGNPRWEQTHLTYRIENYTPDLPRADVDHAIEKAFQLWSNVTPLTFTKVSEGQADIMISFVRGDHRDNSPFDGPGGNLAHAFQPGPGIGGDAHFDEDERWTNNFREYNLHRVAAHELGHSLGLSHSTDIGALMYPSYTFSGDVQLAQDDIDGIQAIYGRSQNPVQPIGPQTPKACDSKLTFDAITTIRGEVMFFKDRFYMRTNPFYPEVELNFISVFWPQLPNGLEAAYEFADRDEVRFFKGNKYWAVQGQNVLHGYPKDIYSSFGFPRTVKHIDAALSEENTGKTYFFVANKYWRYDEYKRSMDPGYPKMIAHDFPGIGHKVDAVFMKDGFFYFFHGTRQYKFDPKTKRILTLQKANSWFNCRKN
Experimental: as §1

[1] = 30 mg/kg IV at 1 and 4 h post-infection

COc1cc2sc(CNC(=O)C3(CC(=O)O)Cc4ccccc4C3)nc2cc1OCCC[N+](C)(C)C [Compound 12]
log reduction in bacterial numbers (CFUs) in lung (P. aeruginosa PAO1; 10 mg/kg IV at 1 and 4 h post-infection): 0.48 log | log reduction in bacterial numbers (CFUs) in lung (P. aeruginosa PAO1; [1]): 0.69 log | IC50 (MMP-2): > 200 µM | IC50 (MMP-1): > 100 µM

COc1cc2sc(CNC(=O)C3(CC(=O)O)Cc4cc(F)c(F)cc4C3)nc2cc1OCCC[N+](C)(CCO)CCO [Compound 16]
log reduction in bacterial numbers (CFUs) in lung (P. aeruginosa PAO1; [1]): 0.47 log | IC50 (MMP-2): > 200 µM | IC50 (MMP-1): > 100 µM
